Common to all, as to assay type: biochemical
One assay concerns the target CDK4/cyclin D1 (Homo sapiens, UniProt P11802). Description: CDK4 enzyme activity inhibition. The following applies: for inhibition at 0.01 µM: compound 10 nM, read-out: CDK4/Cyc D1 inhibition rate % 10 nM; for inhibition at 0.1 µM: compound 100 nM, read-out: CDK4/Cyc D1 inhibition rate % 100 nM. The method, then: (§1) CDK1,4,6,7 enzyme (CDK1/cyclin B, CDK4/cyclin D1, CDK6/cyclin D1, CDK7/cyclin H) activity was measured using a 5 μL enzyme system (50 mM HEPES, 10 mM MgCl2, 1 mM EGTA, 2 mM DTT and 0.0100 Tween 20, appropriate enzyme) either. A mixture of 2.5 μL of compound, 2.5 µL of substrate and ATP (final concentration of substrate 50 nM, final concentration of ATP 200 μM) was incubated at room temperature in the dark for 60 minutes. Then 5 μL EDTA stop solution diluted in 1× detection buffer (final concentration 6 mM) was added to each well, then an antibody diluted in 1× detection buffer (final concentration 2 nM) was added to incubate for 1 hour at room temperature in the dark, and then the corresponding enzyme activity inhibition rate or IC50 was calculated after measurement.

The next assay has as its target CDK7/cyclin H (Homo sapiens, UniProt P50613). Description: CDK7 enzyme activity inhibition. The conditions noted are these: for inhibition at 0.01 µM: compound 10 nM, read-out: CDK7/Cyc H inhibition rate % 10 nM; for inhibition at 0.1 µM: compound 100 nM, read-out: CDK7/Cyc H inhibition rate % 100 nM. The method, then:
as §1

In another assay the target is CDK6/cyclin D1 (Homo sapiens, UniProt Q00534). Description: CDK6 enzyme activity inhibition. The following applies: for inhibition at 0.01 µM: compound 10 nM, read-out: CDK6/Cyc D1 inhibition rate % 10 nM; for inhibition at 0.1 µM: compound 100 nM, read-out: CDK6/Cyc D1 inhibition rate % 100 nM. The method, then:
as §1

In assay [1] the target is T1, Recombinant human CDK9/cyclin T1 (Homo sapiens, UniProt P50750).
T1 construct: purchased Carna bioscience 04-110
Description: CDK9 enzyme inhibitory activity (ADP-Glo kinase assay). The following applies: for inhibition at 0.01 µM / inhibition at 0.1 µM: CDK9 enzyme activity, average of two independent repeats; for inhibition at 0.01 µM: compound 10 nM, read-out: Inhibition rate at different concentrations (%) 10 nM; for inhibition at 0.1 µM: compound 100 nM, read-out: Inhibition rate at different concentrations (%) 100 nM; for IC50: Table 2, read-out: CDK9/CycT1 IC50.

The next assay has as its target CDK1/cyclin B (Homo sapiens, UniProt P06493). Description: CDK1 enzyme activity inhibition. The conditions noted are these: for inhibition at 0.01 µM: compound 10 nM, read-out: CDK1/Cyc B inhibition rate % 10 nM; for inhibition at 0.1 µM: compound 100 nM, read-out: CDK1/Cyc B inhibition rate % 100 nM. The method, then: as §1

Structures can show the parent of a compound that is named as a salt.

T1 sequence (P50750 whole entry): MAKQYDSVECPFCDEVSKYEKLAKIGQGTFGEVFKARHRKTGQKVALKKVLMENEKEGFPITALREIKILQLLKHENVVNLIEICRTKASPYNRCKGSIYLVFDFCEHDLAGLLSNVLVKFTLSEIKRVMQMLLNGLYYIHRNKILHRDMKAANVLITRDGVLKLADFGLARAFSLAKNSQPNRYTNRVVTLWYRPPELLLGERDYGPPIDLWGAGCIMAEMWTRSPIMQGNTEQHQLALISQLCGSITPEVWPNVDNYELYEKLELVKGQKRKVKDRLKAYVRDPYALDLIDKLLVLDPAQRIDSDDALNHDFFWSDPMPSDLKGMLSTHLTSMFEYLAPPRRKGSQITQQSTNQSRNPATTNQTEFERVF
T1 sequence (O60563 whole entry partner): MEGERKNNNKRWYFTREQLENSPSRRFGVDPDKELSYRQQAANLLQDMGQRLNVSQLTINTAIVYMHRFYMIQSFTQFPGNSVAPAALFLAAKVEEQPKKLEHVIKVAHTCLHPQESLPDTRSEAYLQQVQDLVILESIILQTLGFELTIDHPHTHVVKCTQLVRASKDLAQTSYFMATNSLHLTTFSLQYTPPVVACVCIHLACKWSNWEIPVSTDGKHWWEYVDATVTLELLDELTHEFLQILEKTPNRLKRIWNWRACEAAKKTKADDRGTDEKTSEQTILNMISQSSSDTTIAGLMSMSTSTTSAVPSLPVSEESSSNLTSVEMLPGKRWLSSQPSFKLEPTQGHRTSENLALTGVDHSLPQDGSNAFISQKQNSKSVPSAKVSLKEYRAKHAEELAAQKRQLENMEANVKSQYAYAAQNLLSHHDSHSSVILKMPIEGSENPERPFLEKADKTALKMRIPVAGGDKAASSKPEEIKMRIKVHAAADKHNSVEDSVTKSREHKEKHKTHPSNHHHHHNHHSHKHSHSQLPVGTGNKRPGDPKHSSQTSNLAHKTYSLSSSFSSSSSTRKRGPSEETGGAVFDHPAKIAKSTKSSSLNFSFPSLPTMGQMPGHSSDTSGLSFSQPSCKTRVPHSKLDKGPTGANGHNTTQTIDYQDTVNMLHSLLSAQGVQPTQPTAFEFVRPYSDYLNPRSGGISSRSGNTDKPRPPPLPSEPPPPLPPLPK
CDK4/cyclin D1, sequence (P11802 whole entry, species assumed): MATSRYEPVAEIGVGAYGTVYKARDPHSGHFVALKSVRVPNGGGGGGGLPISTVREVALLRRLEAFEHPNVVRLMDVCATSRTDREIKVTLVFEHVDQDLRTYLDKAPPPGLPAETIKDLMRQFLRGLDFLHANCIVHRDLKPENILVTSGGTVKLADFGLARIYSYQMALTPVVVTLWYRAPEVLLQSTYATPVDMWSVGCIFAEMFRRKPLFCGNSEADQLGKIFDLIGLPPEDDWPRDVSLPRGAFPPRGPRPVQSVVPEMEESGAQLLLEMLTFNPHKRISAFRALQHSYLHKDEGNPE
CDK4/cyclin D1, sequence (P24385 whole entry partner, species assumed): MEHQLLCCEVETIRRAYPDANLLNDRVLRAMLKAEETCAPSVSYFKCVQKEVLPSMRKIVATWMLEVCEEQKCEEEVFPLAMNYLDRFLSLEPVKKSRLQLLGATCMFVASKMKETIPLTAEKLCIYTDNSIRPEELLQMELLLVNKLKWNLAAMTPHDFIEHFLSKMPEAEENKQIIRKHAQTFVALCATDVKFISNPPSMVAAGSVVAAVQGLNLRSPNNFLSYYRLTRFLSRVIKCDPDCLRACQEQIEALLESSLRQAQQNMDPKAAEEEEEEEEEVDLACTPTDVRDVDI
CDK1/cyclin B, sequence (P06493 whole entry, species assumed): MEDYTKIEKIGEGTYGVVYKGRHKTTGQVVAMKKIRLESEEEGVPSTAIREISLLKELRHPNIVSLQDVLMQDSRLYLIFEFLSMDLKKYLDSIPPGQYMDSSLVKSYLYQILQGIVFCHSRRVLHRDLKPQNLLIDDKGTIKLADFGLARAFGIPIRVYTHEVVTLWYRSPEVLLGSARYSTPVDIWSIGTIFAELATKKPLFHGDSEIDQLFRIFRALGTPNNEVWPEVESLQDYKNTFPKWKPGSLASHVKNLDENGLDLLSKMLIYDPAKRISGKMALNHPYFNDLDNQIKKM
CDK1/cyclin B, sequence (P14635 whole entry partner, species assumed): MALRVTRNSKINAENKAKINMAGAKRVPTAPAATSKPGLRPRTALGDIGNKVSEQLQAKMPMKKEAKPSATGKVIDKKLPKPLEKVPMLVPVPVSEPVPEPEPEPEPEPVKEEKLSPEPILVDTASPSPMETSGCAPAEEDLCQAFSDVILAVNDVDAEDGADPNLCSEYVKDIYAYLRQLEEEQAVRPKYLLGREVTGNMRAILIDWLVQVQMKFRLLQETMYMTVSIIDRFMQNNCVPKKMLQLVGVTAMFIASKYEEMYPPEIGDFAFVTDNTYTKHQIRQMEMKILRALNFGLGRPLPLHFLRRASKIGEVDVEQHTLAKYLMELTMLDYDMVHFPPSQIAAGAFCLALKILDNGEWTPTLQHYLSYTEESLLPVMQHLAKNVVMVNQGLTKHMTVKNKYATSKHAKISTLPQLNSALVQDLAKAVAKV
CDK7/cyclin H, sequence (P50613 whole entry, species assumed): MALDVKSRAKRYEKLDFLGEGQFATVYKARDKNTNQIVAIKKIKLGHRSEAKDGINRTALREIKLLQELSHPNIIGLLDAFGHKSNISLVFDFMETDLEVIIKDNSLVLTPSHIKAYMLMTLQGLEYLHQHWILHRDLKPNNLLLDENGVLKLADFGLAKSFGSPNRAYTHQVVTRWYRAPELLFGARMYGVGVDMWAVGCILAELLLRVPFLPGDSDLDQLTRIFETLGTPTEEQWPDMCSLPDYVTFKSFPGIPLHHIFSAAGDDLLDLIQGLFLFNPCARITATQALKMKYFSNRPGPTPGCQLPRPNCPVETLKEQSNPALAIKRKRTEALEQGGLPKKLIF
CDK7/cyclin H, sequence (P51946 whole entry partner, species assumed): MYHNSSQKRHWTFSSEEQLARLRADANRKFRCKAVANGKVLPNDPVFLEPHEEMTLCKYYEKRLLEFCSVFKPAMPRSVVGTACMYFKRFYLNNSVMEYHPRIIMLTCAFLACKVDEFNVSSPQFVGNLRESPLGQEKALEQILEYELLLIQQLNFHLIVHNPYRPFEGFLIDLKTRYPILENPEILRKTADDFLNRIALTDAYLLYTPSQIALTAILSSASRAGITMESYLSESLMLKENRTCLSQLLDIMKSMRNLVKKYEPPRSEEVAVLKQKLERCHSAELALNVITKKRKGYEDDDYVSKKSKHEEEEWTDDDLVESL
CDK6/cyclin D1, sequence (Q00534 whole entry, species assumed): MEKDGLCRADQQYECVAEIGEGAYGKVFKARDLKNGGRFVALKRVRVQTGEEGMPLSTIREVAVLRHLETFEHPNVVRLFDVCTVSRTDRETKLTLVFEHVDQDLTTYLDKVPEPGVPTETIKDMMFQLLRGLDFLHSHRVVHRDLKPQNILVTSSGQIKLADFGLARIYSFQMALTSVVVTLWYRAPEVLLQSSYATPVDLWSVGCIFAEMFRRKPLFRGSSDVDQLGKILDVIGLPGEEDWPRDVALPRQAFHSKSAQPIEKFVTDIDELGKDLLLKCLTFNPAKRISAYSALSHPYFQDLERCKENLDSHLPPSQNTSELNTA
CDK6/cyclin D1, sequence (P24385 whole entry partner, species assumed): as the sequence (P24385 whole entry partner, species assumed) above

Regarding `COc1cc(F)ccc1-c1ccnc(NC(=O)N[C@H]2CC[C@H](N)CC2)c1` [Example 2, 1-((1r,4r)-4-aminocyclohexyl)-3-(4-(4-fluoro-2-methoxyphenyl)pyridin-2-yl)urea], the inhibition at 0.01 µM at CDK4/cyclin D1 was -7%; on CDK7/cyclin H, -6.6%; at CDK6/cyclin D1, 2.6%; in assay [1], 57%; on CDK1/cyclin B, 1.3%. For the same compound, the inhibition at 0.1 µM was 1.8% on CDK4/cyclin D1; -3.8% at CDK7/cyclin H; 13.8% at CDK6/cyclin D1; 88% in assay [1]; 7.8% at CDK1/cyclin B. Moreover, in assay [1], the IC50 amounted to 5.7 nM.

Turning to `COCCN[C@H]1CC[C@H](NC(=O)Nc2cc(-c3ccc(F)cc3OC)ccn2)CC1` [Example 3, 1-(4-(4-fluoro-2-methoxyphenyl)pyridin-2-yl)-3-((1r,4r)-4-((2-methoxyethyl)amino)cyclohexyl) urea], the inhibition at 0.01 µM at CDK4/cyclin D1 is 7.2%; on CDK7/cyclin H it was -24.5%; on CDK6/cyclin D1 it was 9.9%; in assay [1] it was 50.2%; at CDK1/cyclin B, -1.9%. Also, the inhibition at 0.1 µM is 25.1% at CDK4/cyclin D1; -2.6% on CDK7/cyclin H; 18.9% on CDK6/cyclin D1; 96.7% in assay [1]; -1.4% at CDK1/cyclin B. Further, the IC50 in assay [1] was found to be 6.2 nM.

Take `CC(=O)NC1CC(NC(=O)Nc2cc(-c3cnn4c3CC(C)(C)C4)c(Cl)cn2)C1` (stereo not shown) [Example 75, N-((1r,3r)-3-(3-(5-chloro-4-(5,5-dimethyl-5,6-dihydro-4H-pyrrolo[1,2-b]pyrazol-3-yl)pyridin-2-yl)ureido)cyclobutyl)acetamide]: in assay [1], the inhibition at 0.01 µM was determined as 51% and the inhibition at 0.1 µM came to 83%.

With `CC1(C)Cc2c(-c3cc(NC(=O)NC4CCCC(NC(=O)OC(C)(C)C)C4)ncc3Cl)cnn2C1` (stereo not shown) [Example 76, tert-butyl (3-(3-(5-chloro-4-(5,5-dimethyl-5,6-dihydro-4H-pyrrolo[1,2-b]pyrazol-3-yl)pyridin-2-yl)ureido)cyclohexyl)carbamate], in assay [1], the inhibition at 0.01 µM worked out at 25% and the inhibition at 0.1 µM worked out at 91%.

On to `CC1(C)Cc2c(-c3cc(NC(=O)NC4CCCC(N)C4)ncc3Cl)cnn2C1` (stereo not shown) [Example 77, 1-(3-aminocyclohexyl)-3-(5-chloro-4-(5,5-dimethyl-5,6-dihydro-4H-pyrrolo[1,2-b]pyrazol-3-yl)pyridin-2-yl)urea], for which, in assay [1], the inhibition at 0.01 µM came to 60.3% and the inhibition at 0.1 µM was determined as 92%.

Consider `CCNC1CCCC(NC(=O)Nc2cc(-c3cnn4c3CC(C)(C)C4)c(Cl)cn2)C1` (stereo not shown) [Example 78, 1-(5-chloro-4-(5,5-dimethyl-5,6-dihydro-4H-pyrrolo[1,2-b]pyrazol-3-yl)pyridin-2-yl)-3-(3-(ethylamino)cyclohexyl)urea], for which, in assay [1], the inhibition at 0.01 µM amounted to 68% and the inhibition at 0.1 µM was determined as 80%.

For `CC(=O)NC1CCCC(NC(=O)Nc2cc(-c3cnn4c3CC(C)(C)C4)c(Cl)cn2)C1` (stereo not shown) [Example 79, N-(3-(3-(5-chloro-4-(5,5-dimethyl-5,6-dihydro-4H-pyrrolo[1,2-b]pyrazol-3-yl)pyridin-2-yl)ureido)cyclohexyl)acetamide], in assay [1], the inhibition at 0.01 µM turned out to be 53% and the inhibition at 0.1 µM was 87%.

Take `COCCNC1CCCC(NC(=O)Nc2cc(-c3cnn4c3CC(C)(C)C4)c(Cl)cn2)C1` (stereo not shown) [Example 80, 1-(5-chloro-4-(5,5-dimethyl-5,6-dihydro-4H-pyrrolo[1,2-b]pyrazol-3-yl)pyridin-2-yl)-3-(3-((2-methoxyethyl)amino)cyclohexyl)urea]: in assay [1], the inhibition at 0.01 µM amounted to 48% and the inhibition at 0.1 µM was determined as 56%.

Turning to `CC(=O)NC1CCC(NC(=O)Nc2cc(-c3cnn4c3CC3(CC3)C4)c(Cl)cn2)CC1` (stereo not shown) [Example 81, N-((1r,4r)-4-(3-(5-chloro-4-(4′H,6′H-spiro[cyclopropane-1,5′-pyrrolo[1,2-b]pyrazole]-3′-yl)pyridin-2-yl)ureido)cyclohexyl)acetamide], in assay [1], the inhibition at 0.01 µM worked out at 58.3% and the inhibition at 0.1 µM was found to be 91.5%.

Turning to `CC(=O)NC1CCC(NC(=O)Nc2cc(-c3cnn4c3COCC4)c(Cl)cn2)CC1` (stereo not shown) [Example 82, N-((1r,4r)-4-(3-(5-chloro-4-(6,7-dihydro-4H-pyrazolo[5,1-c][1,4]oxazine-3-yl)pyridin-2-yl)ureido)cyclohexyl)acetamide], in assay [1], the inhibition at 0.01 µM is 38% and the inhibition at 0.1 µM turned out to be 79.2%.

As for `CC(=O)NC1CCC(NC(=O)Nc2cc(-c3cnn4c3CN(C)CC4)c(Cl)cn2)CC1` (stereo not shown) [Example 83, N-((1r,4r)-4-(3-(5-chloro-4-(5-methyl-4,5,6,7-tetrahydropyrazolo[1,5-a]pyrazin-3-yl)pyridin-2-yl)ureido)cyclohexyl)acetamide], in assay [1], the inhibition at 0.01 µM turned out to be 40.2% and the inhibition at 0.1 µM is 68.3%.

As to `CC(=O)NC1CCC(NC(=O)Nc2cc(-c3cnn4c3CCC4)c(Cl)cn2)CC1` (stereo not shown) [Example 84, N-((1r,4r)-4-(3-(5-chloro-4-(5,6-dihydro-4H-pyrrolo[1,2-b]pyrazol-3-yl)pyridin-2-yl)ureido)cyclohexyl)acetamide], in assay [1], the inhibition at 0.01 µM is 39.5% and the inhibition at 0.1 µM stood at 66.3%.

With `CC(=O)NC1CCC(NC(=O)Nc2cc(-c3cnc(C)n3C(C)C)c(Cl)cn2)CC1` (stereo not shown) [Example 85, N-((1r,4r)-4-(3-(5-chloro-4-(1-isopropyl-2-methyl-1H-imidazol-5-yl)pyridin-2-yl)ureido)cyclohexyl)acetamide], in assay [1], the inhibition at 0.01 µM is 28.9% and the inhibition at 0.1 µM was 72%.

On to `CC(=O)NC1CCC(NC(=O)Nc2cc(-c3cnc4n3CC(C)(C)C4)c(Cl)cn2)CC1` (stereo not shown) [Example 86, N-((1r,4r)-4-(3-(5-chloro-4-(6,6-dimethyl-6,7-dihydro-5H-pyrrolo [1,2-a]imidazol-3-)pyridin-2-yl)ureido)cyclohexyl)acetamide], for which, in assay [1], the inhibition at 0.01 µM was 50.1% and the inhibition at 0.1 µM is 88.3%.

Consider `CC(=O)NC1CCC(NC(=O)Nc2cc(-n3cnc(C4CC4)c3)c(Cl)cn2)CC1` (stereo not shown) [Example 87, N-((1r,4r)-4-(3-(5-chloro-4-(4-cyclopropyl-1H-imidazol-1-yl)pyridin-2-yl)ureido)cyclohexyl)acetamide], for which, in assay [1], the inhibition at 0.01 µM worked out at 43.8% and the inhibition at 0.1 µM was determined as 75.3%.

In the case of `CNC1CCC(NC(=O)Nc2cc(-c3cnn4c3CC(C)(C)C4)c(Cl)cn2)CC1` (stereo not shown) [Example 88, 1-(5-chloro-4-(5,5-dimethyl-5,6-dihydro-4H-pyrrolo[1,2-b]pyrazol-3-yl)pyridin-2-yl)-3-((1r,4r)-4-(methylamino)cyclohexyl)urea], in assay [1], the inhibition at 0.01 µM turned out to be 55.7% and the inhibition at 0.1 µM was found to be 94.2%.

`CN(C)C1CCC(NC(=O)Nc2cc(-c3cnn4c3CC(C)(C)C4)c(Cl)cn2)CC1` (stereo not shown) [Example 89, 1-(5-chloro-4-(5,5-dimethyl-5,6-dihydro-4H-pyrrolo[1,2-b]pyrazol-3-yl)pyridin-2-yl)-3-((1r,4r)-4-(dimethylamino)cyclohexyl)urea]: in assay [1], the inhibition at 0.01 µM stood at 63.7% and the inhibition at 0.1 µM amounted to 92.7%.

As for `COCCN(C)C1CCC(NC(=O)Nc2cc(-c3cnn4c3CC(C)(C)C4)c(Cl)cn2)CC1` (stereo not shown) [Example 90, 1-(5-chloro-4-(5,5-dimethyl-5,6-dihydro-4H-pyrrolo[1,2-b]pyrazol-3-yl)pyridin-2-yl)-3-((1r,4r)-4-((2-methoxyethyl)(methyl)amino)cyclohexyl)urea], in assay [1], the inhibition at 0.01 µM is 61% and the inhibition at 0.1 µM stood at 98%.

For `COCC[N+](C)(C)C1CCC(NC(=O)Nc2cc(-c3cnn4c3CC(C)(C)C4)c(Cl)cn2)CC1` (stereo not shown) [Example 91, (1r,4r)-4-(3-(5-chloro-4-(5,5-dimethyl-5,6-dihydro-4H-pyrrolo[1,2-b]pyrazol-3-yl)pyridin-2-yl)ureido)-N-(2-methoxyethyl)-N,N-dimethylcyclohexyl-1-ammonium salt], in assay [1], the inhibition at 0.01 µM stood at 63% and the inhibition at 0.1 µM was found to be 88%.

As for `CC1(C)Cc2c(-c3cc(NC(=O)NC4CCC(N5CCOCC5)CC4)ncc3Cl)cnn2C1` (stereo not shown) [Example 92, 1-(5-chloro-4-(5,5-dimethyl-5,6-dihydro-4H-pyrrolo[1,2-b]pyrazol-3-yl)pyridin-2-yl)-3-((1r, 4r)-4-morpholinylcyclohexyl)urea], in assay [1], the inhibition at 0.01 µM worked out at 58.9% and the inhibition at 0.1 µM was found to be 93.7%.

The values above are taken from patent publication US20240351986A1, “UREA COMPOUND CONTAINING 2-HETEROAROMATIC RING SUBSTITUTION, PREPARATION METHOD THEREFOR AND USE THEREOF” (SHANGHAI INSTITUTE OF MATERIA MEDICA, CHINESE ACADEMY OF …, priority 2021, published 2024).
